Results published in patent US20030216361A1, “Therapeutic compositions effective against gram positive bacteria” (priority 2000, published 2003).
Values after ≈ are worked out from the molar mass of the structure shown. Values joined by “and” are separate entries in the source; they are usually repeats but may differ in a detail not shown here. Equal values may be shown once. Read-outs that look alike come from different tables or passages of the source. Marks after values point to notes of the source that are not given here.

Columns and labels:
[1] = test system: N. farcinica; assay: Broth macrodilution MIC and MBC, clinical isolates; settings: clinical isolate, 1 strain
[2] = test system: Gardnerella vaginalis; assay: Broth macrodilution MIC and MBC, clinical isolates; settings: 2 strains
[3] = test system: Bacillus subtilis Presque Isle 620; assay: Broth macrodilution MIC and MBC, reference strains
[4] = test system: Arcanobacterium haemolyticum; assay: Broth macrodilution MIC and MBC, clinical isolates; settings: clinical isolate, 1 strain
[5] = test system: Corynebacterium hoagi ATCC 7005; assay: Broth macrodilution MIC and MBC, reference strains; settings: ATCC7005
[6] = test system: ATCC 14154, mouse virulent Staphylococcus aureus; assay: Mouse model of topical Gram positive (Staphylococcus aureus) infection, infected suture; format: in vivo; settings: mice; for Total colonies (number of Staph colonies per suture), individual animals: animals 1-10; for Total colonies (number of Staph colonies per suture), Ave.: average of 10 animals
Experimental: The model, as described in J. Gisby and J. Bryant, Antimicrobial Agents and Chemotherapy, February 2000, Vol. 44, No. 2, p 255-260, was used.
Fifty HSD:ICR male mice weighing 12-14 grams were ordered and allowed to acclimate 7 days. Mice were allocated to 5 groups of 10 animals each.
Group 1: infected suture placed, no treatment
Group 2: topical GRPB, 12.5 mg/kg BID×7 days
Group 3: topical GRPB, 25 mg/kg BID×7 days
Group 4: clean suture, no treatment
Group 5: enrofloxacin (Baytril) 10 mg/kg SQ SID×7 days
ATCC 14154, mouse virulent Staphylococcus aureus was grown in BHI broth overnight (12 hours) at 38 degrees C. Forty-five minutes prior to surgery, silk suture (2-0 size, 1 cm lengths w/swaged-on blunt needle) was soaked in the broth for 30 minutes, excess liquid was then removed by blotting with filter paper.
Mice were anesthetized with a ketamine (40 mg/kg), midazolam (2 mg/kg), and butorphanol (0.1 mg/kg) as a single IP injection.
The skin on the back of the mouse was prepared for aseptic surgery by clipping, cleansing with iodine scrub, and rinsing with alcohol. Mice were kept warm during surgery on a recirculating hot water blanket.
The suture was placed just under the skin on the dorsum of the animal using sterile instruments. The suture was knotted in the subcutaneous tissue to keep it in place. A half-thickness skin wound was made over the suture using the side of an 18 gauge needle as a scalpel.
Mice were allowed to recover in the home cage.
GRPB-10-15A was reconstituted as directed, using a minimal amount of methanol followed by dilution to required volume in sterile physiologic saline.
Injections were given using insulin syringes with 30 gauge needles. Topical administration was placed over the wound site. The mice were first treated 4 hours after surgery and were treated once or twice daily thereafter.
After 7 days of treatment animals were euthanized with IP pentobarbital euthanasia solution. The suture lengths were removed and placed in 2 mls phosphate buffered saline. Serial dilutions were performed and results reported as actual counts (number of Staph colonies per suture).

[7] = test system: Bacillus subtilis Presque Isle 620; assay: Effect of pH on broth macrodilution MICs; format: cell-based
[8] = test system: Corynebacterium diphtheriae, clinical isolate; assay: Effect of pH on broth macrodilution MICs; format: cell-based
[9] = test system: Proteus vulgaris Presque Isle 365; assay: Disk diffusion susceptibility testing
[10] = test system: Enterococcus faecalis ATCC 29212; assay: Broth macrodilution MIC and MBC, reference strains; settings: ATCC29212
[11] = test system: Staphylococcus aureus 29213; assay: Time-kill studies; format: cell-based; settings: S. aureus
Excerpt: (§1) This experiment illustrates a study of the time required (time-kill studies) for anti-microbial action of 3β-acetoxy-17β-(L-prolyl) amino-5α-androstane with certain gram positive bacteria.
(§2) Overnight cultures of Staphylococcus aureus 29213, Enterococcus faecalis 29212 and S. pneumoniae 6303 in MHII broth were inoculated into the same medium containing multiples of the broth macrodilution MIC of 3β-acetoxy-17β-(L-prolyl) amino-5α-androstane, or an equivalent volume of MeOH. Cultures were shaken at 37° C., and aliquots were aseptically removed at various times for dilution plating. Standard errors of the means were calculated from at least two experiments. The detection limit in these experiments was 10 CFU/ml.

[12] = test system: Enterococcus faecalis 29212; assay: Time-kill studies; format: cell-based; settings: E. faecalis
Excerpt: as §1, §2

[13] = test system: B. cereus; assay: Broth macrodilution MIC and MBC, clinical isolates; settings: 5 strains
[14] = test system: Staphylococcus epidermidis Presque Isle 4653; assay: Disk diffusion susceptibility testing
[15] = test system: Listeria monocytogenes; assay: Broth macrodilution MIC and MBC, clinical isolates; settings: 3 strains
[16] = test system: Neisseria gonorrhoeae ATCC 49226; assay: Disk diffusion susceptibility testing
[17] = test system: Enterococcus faecalis ATCC 29212; assay: Disk diffusion susceptibility testing
[18] = test system: Penicillin-resistant Streptococcus pneumoniae; assay: Broth macrodilution MIC and MBC, clinical isolates
[19] = test system: Listeria monocytogenes, clinical isolate; assay: Effect of pH on broth macrodilution MICs; format: cell-based
[20] = test system: S. aureus ATCC 29213; assay: Effect of pH on broth macrodilution MICs; format: cell-based, Staphylococcus aureus
[21] = Group 2 low GRPB, topical 12.5 mg/kg BID×7 days
[22] = Group 3 high GRPB, topical 25 mg/kg BID×7 days
[23] = pH 6, range of 3 determinations
[24] = pH 7, range of 3 determinations
[25] = pH 8, range of 3 determinations

Compound: CC(=O)O[C@H]1CC[C@@]2(C)[C@@H](CC[C@@H]3[C@@H]2CC[C@]2(C)[C@@H](NC(=O)[C@@H]4CCCN4)CC[C@@H]32)C1
- MBC Range [1]: 64 µg/mL (≈ 149 µM)
- MIC Range [1]: 16 µg/mL (≈ 37.2 µM)
- MBC Range [2]: 8 µg/mL (≈ 18.6 µM)
- MIC Range ([2]; read after 48 h): 4 µg/mL (≈ 9.29 µM)
- MBC [3]: 4 µg/mL (≈ 9.29 µM)
- MIC [3]: 4 µg/mL (≈ 9.29 µM)
- MBC Range [4]: 32 µg/mL (≈ 74.3 µM)
- MIC Range [4]: 16 µg/mL (≈ 37.2 µM)
- MBC [5]: 32 µg/mL (≈ 74.3 µM)
- MIC [5]: 8 µg/mL (≈ 18.6 µM)
- Total colonies (number of Staph colonies per suture), individual animals [6, 21]: 227 colonies per suture and 1993 colonies per suture and 832 colonies per suture and 317 colonies per suture and 1174 colonies per suture and 399 colonies per suture and 2523 colonies per suture and 968 colonies per suture and 739 colonies per suture and 1109 colonies per suture
- Total colonies (number of Staph colonies per suture), Ave. [6, 21]: 1028 colonies per suture
- Total colonies (number of Staph colonies per suture), individual animals [6, 22]: 890* colonies per suture and 328 colonies per suture and 483 colonies per suture and 289 colonies per suture and 626 colonies per suture and 572 colonies per suture and 456 colonies per suture and 344 colonies per suture and 565 colonies per suture and 362 colonies per suture
- Total colonies (number of Staph colonies per suture), Ave. [6, 22]: 492 colonies per suture
- MIC Range [7, 23]: 8 µg/mL (≈ 18.6 µM)
- MIC Range [7, 24]: 4 to 8 µg/mL
- MIC Range [7, 25]: 4 to 8 µg/mL
- MIC Range [8, 23]: 16 µg/mL (≈ 37.2 µM)
- MIC Range [8, 24]: 4 to 8 µg/mL
- MIC Range [8, 25]: 2 to 4 µg/mL
- MIC [9]: >100 μg/disk
- MBC [10]: 32 µg/mL (≈ 74.3 µM)
- MIC [10]: 16 µg/mL (≈ 37.2 µM)
- Killing (time dependence) [11]: time-dependent
- Killing (time dependence) [12]: time-dependent
- time to 99.9% kill ([12]; eight times the MIC): 4 h
- survivors after 24 h ([12]; eight times the MIC): no survivors
- time to 99.9% kill ([12]; four times the MIC): 8 h
- survivors after 24 h ([12]; four times the MIC): no survivors
- time to 99.9% kill ([12]; two times the MIC): 8 h
- MBC Range [13]: >64 µg/mL
- MIC Range [13]: 32 µg/mL (≈ 74.3 µM)
- MIC [14]: 6.25-12.5 μg/disk
- MBC Range [15]: 32 to 64 µg/mL
- MIC Range [15]: 16 to 32 µg/mL
- MIC [16]: >100 μg/disk
- MIC [17]: 25-50 μg/disk
- MIC50 ([18]; Streptococcus pneumoniae): 16 µg/mL (≈ 37.2 µM)
- MIC90 ([18]; Streptococcus pneumoniae): 16 µg/mL (≈ 37.2 µM)
- MBC ([18]; Streptococcus pneumoniae, read-out: MBC 50%): 16 µg/mL (≈ 37.2 µM)
- MBC ([18]; Streptococcus pneumoniae, read-out: MBC 90%): 32 µg/mL (≈ 74.3 µM)
- MIC Range ([18]; clinical isolates, 35 strains): 8 to 32 µg/mL
- share of strains with MBC/MIC ratios ≦2 ([18]; penicillin-resistant S. pneumoniae): 88%
- MIC Range [19, 23]: 32 µg/mL (≈ 74.3 µM)
- MIC Range [19, 25]: 16 µg/mL (≈ 37.2 µM)
- MIC Range [20, 23]: 8 to 16 µg/mL
- MIC Range [20, 24]: 8 µg/mL (≈ 18.6 µM)
- MIC Range [20, 25]: 4 µg/mL (≈ 9.29 µM)
